Experimental data taken from article PMC8909107, “Imaging Kv1.3 Expressing Memory T Cells as a Marker of Immunotherapy Response” (Cancers, 2022).
Bridges are numbered along the chain shown (N, C = ends). Where no end group is shown, it is not given here. The star is where a group is joined. NOTA = O=C(O)CN1CCN(CC(=O)O)CCN(CC(=O)*)CC1

Assays:
[1] = target: T1, KV1.3 channels (L929 fibroblasts stably expressing KV1.3) (Mus musculus, UniProt P16390); assay: Patch-clamp (QPatch HTX), run-down of Kv1.3 currents after overnight exposure; assay type: cell-based; settings: L929-KV1.3 cells, overnight exposure 0.1, 1 or 10 μM; current density (pA/pF) at pulses 18-20 normalized to control; n = 13; read-out: IC50 (50% suppression) from normalized current density
T1 construct: expressed in transfected cells
T1 sequence (P16390 whole entry): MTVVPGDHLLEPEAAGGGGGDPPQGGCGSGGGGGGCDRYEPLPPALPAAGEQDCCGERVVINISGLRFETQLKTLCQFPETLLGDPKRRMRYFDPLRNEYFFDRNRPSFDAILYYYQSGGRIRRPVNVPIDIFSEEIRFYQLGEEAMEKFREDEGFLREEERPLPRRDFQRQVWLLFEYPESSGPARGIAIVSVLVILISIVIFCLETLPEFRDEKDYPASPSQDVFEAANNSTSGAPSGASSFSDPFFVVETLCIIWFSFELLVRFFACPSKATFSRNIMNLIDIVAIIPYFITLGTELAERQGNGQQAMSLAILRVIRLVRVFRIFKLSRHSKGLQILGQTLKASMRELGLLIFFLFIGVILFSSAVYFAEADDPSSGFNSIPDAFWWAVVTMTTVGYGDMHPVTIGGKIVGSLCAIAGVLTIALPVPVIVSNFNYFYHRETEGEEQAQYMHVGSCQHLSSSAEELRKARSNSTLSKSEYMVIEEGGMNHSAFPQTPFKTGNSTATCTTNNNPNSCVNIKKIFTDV
Experimental: The effects of the peptides NOTA-KCNA3P and EgK5 on KV1.2, KV1.3 and KV1.5 [19] channels were evaluated by patch-clamp as detailed in the Supplementary Materials (Supplementary Figure S3) using a QPatch HTX automated electrophysiology platform.
We used patch-clamp analysis to determine if NOTA-KCNA3P modulates Kv1.3 channels such as EgK5. We exposed L929 fibroblasts stably expressing KV1.3 channels overnight to NOTA-KCNA3P (0.1, 1 or 10 μM) or EgK5 (10 μM) dissolved in P6N buffer, or to media containing an equal volume of P6N buffer. […] Concentration–response curves generated with either normalized current amplitude or normalized current density yielded IC50 (50% suppression) values of […] and 50 nM, respectively, for NOTA-KCNA3P (Supplementary Figure S3D,E). […]
[18F]AlF-NOTA-KCNA3P was between 8.2 - 8.3 min. […] The radiochemical purity of [18F]AlF-NOTA-KCNA3P was assessed by analytical radio-HPLC (Aeris™ 5µm PEPTIDE XB-C18, 100 Å, 250 x 4.6 mm; 1 ml / min, λ = 220 nm). […]
NOTA-KCNA3P and EgK5 were prepared as 1-10 mM stock solutions in P6N buffer (10 mM sodium phosphate, 0.8% w/v, NaCl, and 0.05% v/v Tween 20, pH 6), diluted with 0.1% (w/v) BSA in external buffer. The effects of peptides on KV1.2, KV1.3 and KV1.5[1] channels were evaluated by patch-clamp using a QPatch HTX automated electrophysiol-ogy platform (Sophion, Denmark) (Supplementary Figure S3). […]

[2] = parameters: species or system mice; settings: in vivo, ~20MBq i.v., blood samples at 0, 30, 60 and 120 min p.i., radioHPLC, over 120 minutes
Text: Mice were imaged under isoflurane anaesthesia and injected with [^18F]AlF-NOTA-KCNA3P (~10 MBq) via the lateral tail vein. Dynamic time–activity curves were acquired to assess tracer uptake and clearance profiles (Supplementary Figure S4) and tail vein blood samples taken to assess in vivo metabolic stability (Supplementary Figure S7). To stratify response to therapy, animals were imaged on day 12 using a Siemens Inveon PET-CT as previously described. […] Data are expressed as % of the injected dose per gram (%ID/g) of tumour tissue in the volume of interest.
Supplementary Figure S5. […] ICI treated responder (TR, black) and treated non responder (TNR, white) animals were sacrificed 80min post-injection, tissues excised, weighed and radioactivity quantified using a Wallac gamma counter. […]
Tumour Kv1.3 expression on infiltrating lymphocytes (TILs) were quantified using standard western blotting procedures as previously described. […]
An equal amount of 10% sulfosalicylic acid was added to the supernatant plasma samples and vortexed to precipitate out remaining proteins. The samples were centrifuged at 2,500 x g for 5 min at 4 °C, and the supernatant analyzed via radioHPLC. […]

[3] = assay type: in vivo, BalbC mice bearing CT26 tumours
Experimental: (§1) Mice were imaged under isoflurane anaesthesia and injected with [^18F]AlF-NOTA-KCNA3P (~10 MBq) via the lateral tail vein. Dynamic time–activity curves were acquired to assess tracer uptake and clearance profiles (Supplementary Figure S4) and tail vein blood samples taken to assess in vivo metabolic stability (Supplementary Figure S7). To stratify response to therapy, animals were imaged on day 12 using a Siemens Inveon PET-CT as previously described. Briefly, 20 min static PET acquisitions were acquired from 60 min post-injection and analysis of the reconstructed calibrated images was performed and volumes of interest delineated by CT imaging were used to determine tissue uptake (whole body distribution shown for reference in Supplementary Figure S8). Data are expressed as % of the injected dose per gram (%ID/g) of tumour tissue in the volume of interest.
Tumour uptake of [^18F]AlF-NOTA-KCNA3P was heterogeneous depending on treatment regime and treatment efficacy (Figure 3A) with a tumour-to-blood ratio (TBR) of ~2 in tumour responders and a TBR of ~1 in tumour non-responders (TNRs). Low tumour uptake of [^18F]AlF-NOTA-KCNA3P was measured in the TNRs and the control treatment arm. […] Tumour uptake of [^18F]AlF-NOTA-KCNA3P was sufficient to distinguish from background and differentiated responsive tumours from treated non-responders (Table 1 and Figure 3B,C) in vivo. Ex vivo biodistribution was used to confirm the imaging results (Supplementary Figure S5). Importantly, no difference was seen between non-responders and responders in the biodistribution of [^18F]AlF-NOTA-KCNA3P in muscle, blood, lung, skin, heart and brain, the only difference being in the tumour (Supplementary Figure S5). […]
1.7 In vivo biodistribution of [18F]AlF-NOTA-KCNA3P
The biodistribution of [18F]AlF-NOTA-KCNA3P was assessed in BalbC mice bearing CT26 tumours treated with combined PD-1 and CTLA4 therapy. The animals were im-aged dynamically for 120 minutes and the distribution and excretion characteristics as- […]
the kidneys and hepatobiliary routes (Supplementary Figure S4). Blood clearance is […]
Supplementary Figure S5. Ex vivo biodistribution analysis of [18F]AlF-NOTA-KCNA3P retention in selected organs. ICI treated responder (TR, black) and treated non responder (TNR, white) animals were sacrificed 80min post-injection, tissues excised, weighed and radioactivity quantified using a Wallac gamma counter. Bars represent the mean of 5 animals ± SEM, * P<0.05.
1.9 Western blot analysis of Kv1.3 […]
The following anti- […]
bodies were used: anti-Kv1.3 KCNA3 (APC-101, Alomone) and anti-GAPDH (SC-47724, […]
Supplementary Figure S6. […]

[4] = PET-CT tumour retention of the tracer after ICI treatment; assay type: in vivo, BALB/c mice; settings: BALB/c, mouse, CT26 tumour, iv, 10 MBq, total radioactivity, PET-CT day 12, 20 min static from 60 min post-injection, ~10 MBq i.v., mean ± SD
Text: All animal procedures strictly followed IACUC guidelines (IACUC No. 181399) and conformed to NIH guidelines and public law. Development of the animal model has been described previously. Briefly, BALB/c mice aged 6–8 weeks were purchased from In Vivos (Singapore) and implanted subcutaneously into the right shoulder with the murine colon cancer cell line CT26 (ATCC, 2 × 10^5 cells per animal 1:1 (v:v) ratio in Matrigel). Tumour volumes were repeatedly measured on days 6, 9, 12, 15, 19 and 21 post tumour implantation. The mice were randomised and dosed by intraperitoneal (i.p.) injection on days 6, 9 and 12 following tumour inoculation. Treatment groups included control (5 mg/kg, rat IgG2a isotype control, α-trinitrophenol mAb, IP), αPD1 mAb monotherapy (10 mg/kg, rat IgG2a anti-mouse PD-1, RMP1-14) and combined αPD1 and αCTLA4 mAb therapy (10 mg/kg and 5 mg/kg, respectively, mouse IgG2b anti-mouse CTLA-4, 9D9, Bio-X Cell).
as §1
Tumour uptake of [^18F]AlF-NOTA-KCNA3P was heterogeneous depending on treatment regime and treatment efficacy (Figure 3A) with a tumour-to-blood ratio (TBR) of ~2 in tumour responders and a TBR of ~1 in tumour non-responders (TNRs). Low tumour uptake of [^18F]AlF-NOTA-KCNA3P was measured in the TNRs and the control treatment arm. […] Tumour uptake of [^18F]AlF-NOTA-KCNA3P was sufficient to distinguish from background and differentiated responsive tumours from treated non-responders (Table 1 and Figure 3B,C) in vivo. Ex vivo biodistribution was used to confirm the imaging results (Supplementary Figure S5). Importantly, no difference was seen between non-responders and responders in the biodistribution of [^18F]AlF-NOTA-KCNA3P in muscle, blood, lung, skin, heart and brain, the only difference being in the tumour (Supplementary Figure S5).

Substance: {NOTA}-RTCESASHKFEGPCLRDSNCANVCKTEGFHGGKCKGLRRRCFCTKHC (disulfide 3-47, 14-34, 20-41, 24-43) [NOTA-KCNA3P]
- IC50 [1]: 50 nM

Substance: {NOTA}-RTCESASHKFEGPCLRDSNCANVCKTEGFHGGKCKGLRRRCFCTKHC (disulfide 3-47, 14-34, 20-41, 24-43) [[^18F]AlF-NOTA-KCNA3P]
- metabolism of parent tracer in plasma [2]: less than 30%
- Blood clearance ([3]; dynamic PET 120 minutes): rapid
- muscle uptake ([3]; dynamic PET 120 minutes): relatively low
- excretion profile ([3]; dynamic PET 120 minutes, CT26 tumour mice treated with combined PD-1 and CTLA4 therapy): excretion via the kidneys and hepatobiliary routes
- difference between non-responders and responders in biodistribution in muscle, blood, lung, skin, heart and brain ([3]; ex vivo biodistribution, 80min post-injection, gamma counter, 5 animals): no difference
- tissue uptake ([4]; Control group (isotype IgG), n = 10 mice/group): 0.51 ± 0.19 %ID/g
- tissue uptake ([4]; Treatment non-responders (TNR)): 0.53 ± 0.2 %ID/g
- tissue uptake ([4]; Treatment responsive tumours (TR), αPD1 + αCTLA4): 1.3 ± 0.36 %ID/g
- tissue uptake ([4]; Treatment responsive tumours (TR), αPD1): 0.87 ± 0.15 %ID/g
